Measured values from patent US20060004043A1, “Indazole compounds and methods of use thereof” (priority 2003, published 2006).

Target: Rsk1 (Rattus norvegicus, UniProt Q63531)
Assay: Rsk1(r) kinase assay, 33P-ATP filter binding
Format: biochemical
Details: compound at 3 μM; [ATP] = 10 μM
Protocol: The assays briefly described below in Examples 54-123 were carried out as described in Davies et al., Biochem. J., 351:95-105 (2000). All assays were carried out at 10 μM ATP unless otherwise noted.
All kinases are pre-diluted to a 10× working concentration prior to addition into the assay. The composition of the dilution buffer for each kinase is described below in Table 3.
In addition, the following abbreviations are used: h is human; r is rat; m is mouse; b is bovine; and y is yeast.
In a final reaction volume of 25 μl, Rsk1(r) (5-10 mU) is incubated with 8 mM MOPS pH 7.0, 0.2 mM EDTA, 30 μM […], 10 mM MgAcetate and [γ-^33P-ATP] (Specific activity approx. 500 cpm/pmol, concentration as required). The reaction is initiated by the addition of Mg^2+[γ-^33P-ATP]. After incubation for 40 minutes at room temperature, the reaction is stopped by the addition of 5 μl of a 3% phosphoric acid solution. 10 μl of the reaction is then spotted onto a P30 filtermat and washed three times for 5 minutes in 75 mM phosphoric acid and once in methanol prior to drying and scintillation counting.
Using the appropriate assay protocols as listed above, kinase inhibition data for Compounds 21 and 71 was determined for the following kinases: CDK1/cyclin B, CDK2/cyclin A, cSRC, Yes, MEK1, and Rsk1.

Rsk1, sequence (Q63531 whole entry): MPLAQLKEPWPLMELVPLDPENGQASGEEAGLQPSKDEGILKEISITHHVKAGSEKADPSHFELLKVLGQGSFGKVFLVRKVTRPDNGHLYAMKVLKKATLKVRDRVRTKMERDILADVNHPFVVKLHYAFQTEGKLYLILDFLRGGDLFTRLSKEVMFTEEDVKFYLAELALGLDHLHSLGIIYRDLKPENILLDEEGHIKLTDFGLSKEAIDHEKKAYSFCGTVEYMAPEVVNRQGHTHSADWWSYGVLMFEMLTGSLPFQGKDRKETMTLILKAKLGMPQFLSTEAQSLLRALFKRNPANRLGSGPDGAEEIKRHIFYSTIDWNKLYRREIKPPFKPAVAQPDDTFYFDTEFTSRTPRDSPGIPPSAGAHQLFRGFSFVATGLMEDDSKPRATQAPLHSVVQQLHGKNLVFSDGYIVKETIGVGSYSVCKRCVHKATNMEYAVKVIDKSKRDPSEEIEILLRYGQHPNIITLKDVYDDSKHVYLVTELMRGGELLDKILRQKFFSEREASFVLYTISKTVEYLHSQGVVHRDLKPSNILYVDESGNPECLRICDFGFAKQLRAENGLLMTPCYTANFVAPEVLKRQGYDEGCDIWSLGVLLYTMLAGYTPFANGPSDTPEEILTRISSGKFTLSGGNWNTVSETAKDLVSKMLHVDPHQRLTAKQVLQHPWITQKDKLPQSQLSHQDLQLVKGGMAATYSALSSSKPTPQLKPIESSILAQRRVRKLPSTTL

SMILES | Rsk1 (% control)
CC(C)(C)Cc1nc(-c2ccc3[nH]nc(-c4ccc5cc(OCc6ccccn6)ccc5c4)c3c2)n[nH]1 [Compound 92] | 29
COc1ccc2cc(-c3n[nH]c4ccc(-c5n[nH]c(CN6CCOCC6)n5)cc34)ccc2c1 [Compound 20] | 4
